Laboratory results reported in the supplement of paper PMC11208160.

Assay: recombinant UMI read abundance after kanamycin selection (control-corrected) (log10(CPM+1)); higher = more efficient recombination; extreme values may be limits of the assay; sequences stand for … in AGTGCAGAGAAAATCGGCCAGTTTTCTCTGCCTGCAGTCCGCATGCCGTGGGACCCCTTGGGTTCTAACCTGTTGCCTAGATTTATGCAGCGGACTGCCTTTCTCCCAAAGTGATAAACCGG…AGGTTGGTTTCACT; site = the 11-nt donor
How it was run: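 In a pooled Escherichia coli screen for the IS621 bridge recombinase, donor and donor-binding-loop pairs were each placed with a 12-nt UMI on a plasmid bearing a promoterless kanamycin gene. This library was co-electroporated with a target plasmid encoding a fixed target and T7-inducible recombinase, and cells were plated either on IPTG (0.07 mM) plus kanamycin or without selection, in two replicates each. Recombinant UMIs were PCR-amplified across the donor–target junction and sequenced, and counts were converted to CPM, averaged over replicates, scaled by control-derived factors and reported as log10(CPM+1).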
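Note: IS621 bridge recombinase in Escherichia coli cells against a fixed T5 target plasmid.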

Sequence	recombinant UMI read abundance (log10)
CCCAAATCATGGACCGGTTTTCCCGGTAATCCGTATTTGTC (site CCCAGATCTGA)	0
CCCAAATCATGGACCGGTTTTCCCGGTAATCCGTATTTGTC (site CCCATATCTGA)	0
CCCAAGCCATGGACCGGTTTTCCCGGTAATCCGTATTTGCC (site CCCAAGCCTGG)	0
CCCAAGCCATGGACCGGTTTTCCCGGTAATCCGTATTTGCC (site CCCCAGCCTGG)	0
CCCAAGCCATGGACCGGTTTTCCCGGTAATCCGTATTTGCC (site CCCGAGCCTGG)	0
CCCAAGCCATGGACCGGTTTTCCCGGTAATCCGTATTTGCC (site CCCTAGCCTGG)	0.398
CCCAGCACATGGACCGGTTTTCCCGGTAATCCGTATTTGAA (site CCCAGCACTTT)	0.515
CCCAGCTCATGGACCGGTTTTCCCGGTAATCCGTATTTGCA (site CCCAGCTCTTG)	2.3
CCCATACCATGGACCGGTTTTCCCGGTAATCCGTATTTGTG (site CCCATACCTCA)	0.0125
CCCATATCATGGACCGGTTTTCCCGGTAATCCGTATTTGGC (site CCCATATCTGA)	0
CCCATATCATGGACCGGTTTTCCCGGTAATCCGTATTTGGC (site CCCATATCTGC)	0
CCCATATCATGGACCGGTTTTCCCGGTAATCCGTATTTGGC (site CCCATATCTGG)	0
CCCATATCATGGACCGGTTTTCCCGGTAATCCGTATTTGGC (site CCCATATCTGT)	0.0107
CCCATCTCATGGACCGGTTTTCCCGGTAATCCGTATTTGCT (site CCCATCTCTAG)	1.63
CCCATCTCATGGACCGGTTTTCCCGGTAATCCGTATTTGTC (site CCCATATCTGA)	0
CCCATCTCATGGACCGGTTTTCCCGGTAATCCGTATTTGTC (site CCCATCTCTGA)	1.35
CCCATCTCATGGACCGGTTTTCCCGGTAATCCGTATTTGTC (site CCCATGTCTGA)	0
CCCATCTCATGGACCGGTTTTCCCGGTAATCCGTATTTGTC (site CCCATTTCTGA)	0
CCCCAAGCATGGACCGGTTTTCCCGGTAATCCGTATTTGGC (site CCCCAAGCTGC)	0
CCCCACACATGGACCGGTTTTCCCGGTAATCCGTATTTGCA (site CCCCACACTTA)	0.0196
CCCCACACATGGACCGGTTTTCCCGGTAATCCGTATTTGCA (site CCCCACACTTC)	0.0185
CCCCACACATGGACCGGTTTTCCCGGTAATCCGTATTTGCA (site CCCCACACTTG)	1.88
CCCCACACATGGACCGGTTTTCCCGGTAATCCGTATTTGCA (site CCCCACACTTT)	0.16
CCCCACGCATGGACCGGTTTTCCCGGTAATCCGTATTTGGC (site CCCCACGCTGC)	0.767
CCCCACGCATGGACCGGTTTTCCCGGTAATCCGTATTTGTA (site CCCCACACTTA)	0.643

Sequence	recombinant UMI read abundance (log10)
CCCCACGCATGGACCGGTTTTCCCGGTAATCCGTATTTGTA (site CCCCACCCTTA)	0.00405
CCCCACGCATGGACCGGTTTTCCCGGTAATCCGTATTTGTA (site CCCCACGCTTA)	0.81
CCCCACGCATGGACCGGTTTTCCCGGTAATCCGTATTTGTA (site CCCCACTCTTA)	0.923
CCCCAGCCATGGACCGGTTTTCCCGGTAATCCGTATTTGCC (site CCCAAGCCTGG)	0
CCCCAGCCATGGACCGGTTTTCCCGGTAATCCGTATTTGCC (site CCCCAGCCTGG)	0
CCCCAGCCATGGACCGGTTTTCCCGGTAATCCGTATTTGCC (site CCCGAGCCTGG)	0
CCCCAGCCATGGACCGGTTTTCCCGGTAATCCGTATTTGCC (site CCCTAGCCTGG)	0
CCCCGTCCATGGACCGGTTTTCCCGGTAATCCGTATTTGAA (site CCCCGTCCTTT)	0.00894
CCCGAGACATGGACCGGTTTTCCCGGTAATCCGTATTTGTT (site CCCGAGACTAA)	0.475
CCCGAGCCATGGACCGGTTTTCCCGGTAATCCGTATTTGCC (site CCCAAGCCTGG)	0
CCCGAGCCATGGACCGGTTTTCCCGGTAATCCGTATTTGCC (site CCCCAGCCTGG)	0
CCCGAGCCATGGACCGGTTTTCCCGGTAATCCGTATTTGCC (site CCCGAGCCTGG)	0
CCCGAGCCATGGACCGGTTTTCCCGGTAATCCGTATTTGCC (site CCCTAGCCTGG)	0
CCCGGCCCATGGACCGGTTTTCCCGGTAATCCGTATTTGTT (site CACGGCCCTAA)	0.00644
CCCGGCCCATGGACCGGTTTTCCCGGTAATCCGTATTTGTT (site CCCGGCCCTAA)	0.1
CCCGGCCCATGGACCGGTTTTCCCGGTAATCCGTATTTGTT (site CGCGGCCCTAA)	0.00519
CCCGGCCCATGGACCGGTTTTCCCGGTAATCCGTATTTGTT (site CTCGGCCCTAA)	0
CCCGGGCCATGGACCGGTTTTCCCGGTAATCCGTATTTGCA (site CCCGGACCTTG)	0
CCCGGGCCATGGACCGGTTTTCCCGGTAATCCGTATTTGCA (site CCCGGCCCTTG)	0
CCCGGGCCATGGACCGGTTTTCCCGGTAATCCGTATTTGCA (site CCCGGGCCTTG)	0
CCCGGGCCATGGACCGGTTTTCCCGGTAATCCGTATTTGCA (site CCCGGTCCTTG)	0
CCCGGGGCATGGACCGGTTTTCCCGGTAATCCGTATTTGCA (site CCCGGGGCTTG)	1.23
CCCGGTCCATGGACCGGTTTTCCCGGTAATCCGTATTTGAA (site CCCGGTCCTTA)	0
CCCGGTCCATGGACCGGTTTTCCCGGTAATCCGTATTTGAA (site CCCGGTCCTTC)	0.00874
CCCGGTCCATGGACCGGTTTTCCCGGTAATCCGTATTTGAA (site CCCGGTCCTTG)	0

Sequence	recombinant UMI read abundance (log10)
CCCGGTCCATGGACCGGTTTTCCCGGTAATCCGTATTTGAA (site CCCGGTCCTTT)	0.00816
CCCGGTCCATGGACCGGTTTTCCCGGTAATCCGTATTTGCC (site CCCGGTCCTAG)	0
CCCGGTCCATGGACCGGTTTTCCCGGTAATCCGTATTTGCC (site CCCGGTCCTCG)	0.0293
CCCGGTCCATGGACCGGTTTTCCCGGTAATCCGTATTTGCC (site CCCGGTCCTGG)	0
CCCGGTCCATGGACCGGTTTTCCCGGTAATCCGTATTTGCC (site CCCGGTCCTTG)	0.00573
CCCGTTCCATGGACCGGTTTTCCCGGTAATCCGTATTTGCA (site CCCGATCCTTG)	0
CCCGTTCCATGGACCGGTTTTCCCGGTAATCCGTATTTGCA (site CCCGCTCCTTG)	0
CCCGTTCCATGGACCGGTTTTCCCGGTAATCCGTATTTGCA (site CCCGGTCCTTG)	0
CCCGTTCCATGGACCGGTTTTCCCGGTAATCCGTATTTGCA (site CCCGTTCCTTG)	0
CCCTAACCATGGACCGGTTTTCCCGGTAATCCGTATTTGAA (site CCCTAACCTTT)	0.0156
CCCTAACCATGGACCGGTTTTCCCGGTAATCCGTATTTGCC (site CCCTAACCTGG)	0
CCCTAACCATGGACCGGTTTTCCCGGTAATCCGTATTTGCC (site CCCTACCCTGG)	0
CCCTAACCATGGACCGGTTTTCCCGGTAATCCGTATTTGCC (site CCCTAGCCTGG)	0
CCCTAACCATGGACCGGTTTTCCCGGTAATCCGTATTTGCC (site CCCTATCCTGG)	0
CCCTACACATGGACCGGTTTTCCCGGTAATCCGTATTTGCT (site CACTACACTAG)	0
CCCTACACATGGACCGGTTTTCCCGGTAATCCGTATTTGCT (site CCCTACACTAG)	1.12
CCCTACACATGGACCGGTTTTCCCGGTAATCCGTATTTGCT (site CGCTACACTAG)	0.477
CCCTACACATGGACCGGTTTTCCCGGTAATCCGTATTTGCT (site CTCTACACTAG)	0.347
CCCTAGACATGGACCGGTTTTCCCGGTAATCCGTATTTGCC (site CCCTAGACTGG)	1.04
CCCTAGACATGGACCGGTTTTCCCGGTAATCCGTATTTGCC (site CCCTAGCCTGG)	0
CCCTAGACATGGACCGGTTTTCCCGGTAATCCGTATTTGCC (site CCCTAGGCTGG)	1.18
CCCTAGACATGGACCGGTTTTCCCGGTAATCCGTATTTGCC (site CCCTAGTCTGG)	0
CCCTAGACATGGACCGGTTTTCCCGGTAATCCGTATTTGCT (site CCCTAGACTAG)	0.956
CCCTAGCCATGGACCGGTTTTCCCGGTAATCCGTATTTGAC (site CCCTAGCCTGA)	0
CCCTAGCCATGGACCGGTTTTCCCGGTAATCCGTATTTGAC (site CCCTAGCCTGC)	0
